Measurements as given in patent US8211935B2, “Heterocyclic derivatives for modulation of calcium channels” (Vertex Pharmaceuticals Incorporated, priority 2004, dated 2012).
Where two headings read alike, the source gives them in different places.

Target: T1, CaV2.2 (Homo sapiens, UniProt Q00975)
T1 construct: expressed in transfected cells; host or cells: HEK293
Assay: VIPR optical membrane potential assay with electrical stimulation
Type: cell-based
Protocol: Antagonist properties of test compounds were assessed as follows. Cells expressing the CaV of interest were placed into microtiter plates. After an incubation period, the cells were stained with fluorescent dyes sensitive to the transmembrane potential. The test compounds were added to the microtiter plate. The cells were stimulated with electrical means to evoke a CaV dependent membrane potential change from unblocked channels, which was detected and measured with trans-membrane potential-sensitive dyes. Antagonists were detected as a decreased membrane potential response to the stimulus.
VIPR® Optical Membrane Potential Assay Method with Electrical Stimulation
The following is an example of how CaV2.2 inhibition activity is measured using the optical membrane potential method. Other subtypes are performed in an analogous mode in a cell line expressing the CaV of interest.
HEK293 cells stably expressing CaV2.2 are plated into 96-well microtiter plates. After an appropriate incubation period, the cells are stained with the voltage sensitive dyes CC2-DMPE/DiSBAC2(3) as follows.
2×CC2-DMPE=20 μM CC2-DMPE: 10 mM CC2-DMPE is vortexed with an equivalent volume of 10% Pluronic, followed by vortexing in required amount of HBSS containing 10 mM HEPES. Each cell plate will require 5 mL of 2×CC2-DMPE. 50 μL of 2×CC2-DMPE is added to wells containing washed cells, resulting in a 10 μM final staining concentration. The cells are stained for 30 minutes in the dark at RT.
Vortex in required amount of Bath X with beta-cyclodextrin. Each 96 well cell plate will require 5 ml of 2×CC2DMPE. Wash plate with ELx405 with Bath X, leaving a residual volume of 50 μL/well. Add 50 μL of 2×CC2DMPE & DISBAC6(3) to each well. Stain for 30 minutes in the dark at RT.
Allow solution to sit for 10 minutes. Slowly mix in 370 mM BaCl2. This solution can be used to solvate compound plates. Note that compound plates are made at 1.5× drug concentration and not the usual 2×. Wash CC2 stained plate, again, leaving residual volume of 50 pt. Add 100 uL/well of the AY17 solution. Stain for 15 minutes in the dark at RT. Run plate on the optical reader.
The instrument comprises a microtiter plate handler, an optical system for exciting the coumarin dye while simultaneously recording the coumarin and oxonol emissions, a waveform generator, a current- or voltage-controlled amplifier, and a device for inserting electrodes in well. Under integrated computer control, this instrument passes user-programmed electrical stimulus protocols to cells within the wells of the microtiter plate.
Insert or use electrodes into each well to be assayed.
Use the current-controlled amplifier to deliver stimulation wave pulses for 3-5 s. Two seconds of pre-stimulus recording are performed to obtain the un-stimulated intensities. Five seconds of post-stimulation recording are performed to examine the relaxation to the resting state.
Data are analyzed and reported as normalized ratios of background-subtracted emission intensities measured in the 460 nm and 580 nm channels. Background intensities are then subtracted from each assay channel. Background intensities are obtained by measuring the emission intensities during the same time periods from identically treated assay wells in which there are no cells. The response as a function of time is then reported as the ratios obtained using the following formula: […]
The data is further reduced by calculating the initial (Ri) and final (Rf) ratios. These are the average ratio values during part or all of the pre-stimulation period, and during sample points during the stimulation period. The response to the stimulus R=Rf/Ri is then calculated.
Control responses are obtained by performing assays in the presence of a compound with the desired properties (positive control), such as mibefradil, and in the absence of pharmacological agents (negative control). Responses to the negative (N) and positive (P) controls are calculated as above.

[1] = Table 3, biological assay data, read-out: IC50

T1 sequence (Q00975 whole entry): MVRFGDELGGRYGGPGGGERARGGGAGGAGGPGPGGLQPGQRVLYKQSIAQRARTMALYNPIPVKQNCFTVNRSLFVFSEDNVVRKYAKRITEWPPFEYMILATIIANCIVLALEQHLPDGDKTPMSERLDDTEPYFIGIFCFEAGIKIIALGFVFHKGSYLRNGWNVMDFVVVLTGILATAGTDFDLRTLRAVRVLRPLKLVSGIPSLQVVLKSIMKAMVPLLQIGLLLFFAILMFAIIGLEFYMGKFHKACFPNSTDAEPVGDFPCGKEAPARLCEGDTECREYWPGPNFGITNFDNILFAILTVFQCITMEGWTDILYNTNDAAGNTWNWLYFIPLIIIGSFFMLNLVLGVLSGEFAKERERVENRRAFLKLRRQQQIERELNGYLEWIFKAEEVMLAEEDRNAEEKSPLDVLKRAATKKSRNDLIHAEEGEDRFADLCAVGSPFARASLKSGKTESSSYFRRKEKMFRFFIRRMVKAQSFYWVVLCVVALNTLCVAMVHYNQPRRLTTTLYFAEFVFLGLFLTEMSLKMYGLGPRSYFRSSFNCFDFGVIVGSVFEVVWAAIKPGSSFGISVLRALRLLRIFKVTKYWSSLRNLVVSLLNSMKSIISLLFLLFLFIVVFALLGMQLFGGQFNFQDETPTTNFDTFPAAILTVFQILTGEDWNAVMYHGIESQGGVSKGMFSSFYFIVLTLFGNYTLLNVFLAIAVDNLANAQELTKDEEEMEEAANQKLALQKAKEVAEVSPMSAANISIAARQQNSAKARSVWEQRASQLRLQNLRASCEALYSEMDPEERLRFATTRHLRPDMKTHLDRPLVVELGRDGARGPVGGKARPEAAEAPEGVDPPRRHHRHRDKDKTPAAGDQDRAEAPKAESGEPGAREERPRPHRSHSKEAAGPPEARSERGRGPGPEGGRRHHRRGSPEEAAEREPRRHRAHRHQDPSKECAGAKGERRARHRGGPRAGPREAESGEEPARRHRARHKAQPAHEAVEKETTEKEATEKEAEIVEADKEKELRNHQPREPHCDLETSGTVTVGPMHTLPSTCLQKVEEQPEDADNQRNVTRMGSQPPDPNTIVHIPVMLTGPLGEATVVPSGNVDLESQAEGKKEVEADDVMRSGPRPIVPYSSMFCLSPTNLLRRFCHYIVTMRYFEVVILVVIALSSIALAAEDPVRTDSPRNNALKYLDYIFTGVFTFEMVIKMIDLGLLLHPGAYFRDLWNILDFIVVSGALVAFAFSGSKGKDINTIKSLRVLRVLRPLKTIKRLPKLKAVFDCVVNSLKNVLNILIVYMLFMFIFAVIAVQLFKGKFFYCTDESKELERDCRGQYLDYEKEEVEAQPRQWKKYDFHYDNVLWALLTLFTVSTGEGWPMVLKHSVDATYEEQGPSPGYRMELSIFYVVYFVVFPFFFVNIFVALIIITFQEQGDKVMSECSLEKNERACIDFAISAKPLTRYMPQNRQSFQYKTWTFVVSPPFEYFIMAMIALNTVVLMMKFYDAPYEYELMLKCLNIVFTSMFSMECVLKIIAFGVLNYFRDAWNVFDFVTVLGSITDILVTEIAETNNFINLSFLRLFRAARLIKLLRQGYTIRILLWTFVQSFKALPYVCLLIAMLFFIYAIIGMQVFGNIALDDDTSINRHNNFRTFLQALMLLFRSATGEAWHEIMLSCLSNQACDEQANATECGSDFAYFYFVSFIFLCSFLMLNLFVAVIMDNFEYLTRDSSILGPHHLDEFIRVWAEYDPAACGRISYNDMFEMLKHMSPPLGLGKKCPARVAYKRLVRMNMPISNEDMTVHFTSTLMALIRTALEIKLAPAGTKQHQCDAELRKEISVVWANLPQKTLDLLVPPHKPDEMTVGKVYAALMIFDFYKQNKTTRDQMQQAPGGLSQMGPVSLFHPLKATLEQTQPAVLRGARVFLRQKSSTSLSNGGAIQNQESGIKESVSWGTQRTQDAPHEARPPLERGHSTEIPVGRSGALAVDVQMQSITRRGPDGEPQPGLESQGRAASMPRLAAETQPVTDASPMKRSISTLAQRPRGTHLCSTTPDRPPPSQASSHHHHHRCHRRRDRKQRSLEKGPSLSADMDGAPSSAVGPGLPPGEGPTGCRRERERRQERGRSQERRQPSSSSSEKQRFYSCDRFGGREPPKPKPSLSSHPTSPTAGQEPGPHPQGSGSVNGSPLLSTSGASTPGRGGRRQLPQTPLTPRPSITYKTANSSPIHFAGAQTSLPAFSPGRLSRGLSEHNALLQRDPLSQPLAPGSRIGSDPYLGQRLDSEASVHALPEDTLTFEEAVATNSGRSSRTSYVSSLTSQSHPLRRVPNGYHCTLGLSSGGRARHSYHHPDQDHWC
T1 sequence (P54284 whole entry partner): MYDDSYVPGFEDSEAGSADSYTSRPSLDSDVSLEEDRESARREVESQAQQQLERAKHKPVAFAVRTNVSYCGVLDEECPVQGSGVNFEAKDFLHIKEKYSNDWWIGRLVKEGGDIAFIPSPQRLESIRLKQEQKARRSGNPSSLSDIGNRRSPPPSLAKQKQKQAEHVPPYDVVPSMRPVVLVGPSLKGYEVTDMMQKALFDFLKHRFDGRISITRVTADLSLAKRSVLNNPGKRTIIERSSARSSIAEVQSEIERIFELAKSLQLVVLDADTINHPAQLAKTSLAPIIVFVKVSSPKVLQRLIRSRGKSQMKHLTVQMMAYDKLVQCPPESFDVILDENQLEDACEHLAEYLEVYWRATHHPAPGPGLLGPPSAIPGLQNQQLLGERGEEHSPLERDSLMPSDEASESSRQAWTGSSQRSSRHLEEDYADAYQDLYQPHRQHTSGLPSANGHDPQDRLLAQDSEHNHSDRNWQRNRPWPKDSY
T1 sequence (P54289 25-946 partner limits assumed): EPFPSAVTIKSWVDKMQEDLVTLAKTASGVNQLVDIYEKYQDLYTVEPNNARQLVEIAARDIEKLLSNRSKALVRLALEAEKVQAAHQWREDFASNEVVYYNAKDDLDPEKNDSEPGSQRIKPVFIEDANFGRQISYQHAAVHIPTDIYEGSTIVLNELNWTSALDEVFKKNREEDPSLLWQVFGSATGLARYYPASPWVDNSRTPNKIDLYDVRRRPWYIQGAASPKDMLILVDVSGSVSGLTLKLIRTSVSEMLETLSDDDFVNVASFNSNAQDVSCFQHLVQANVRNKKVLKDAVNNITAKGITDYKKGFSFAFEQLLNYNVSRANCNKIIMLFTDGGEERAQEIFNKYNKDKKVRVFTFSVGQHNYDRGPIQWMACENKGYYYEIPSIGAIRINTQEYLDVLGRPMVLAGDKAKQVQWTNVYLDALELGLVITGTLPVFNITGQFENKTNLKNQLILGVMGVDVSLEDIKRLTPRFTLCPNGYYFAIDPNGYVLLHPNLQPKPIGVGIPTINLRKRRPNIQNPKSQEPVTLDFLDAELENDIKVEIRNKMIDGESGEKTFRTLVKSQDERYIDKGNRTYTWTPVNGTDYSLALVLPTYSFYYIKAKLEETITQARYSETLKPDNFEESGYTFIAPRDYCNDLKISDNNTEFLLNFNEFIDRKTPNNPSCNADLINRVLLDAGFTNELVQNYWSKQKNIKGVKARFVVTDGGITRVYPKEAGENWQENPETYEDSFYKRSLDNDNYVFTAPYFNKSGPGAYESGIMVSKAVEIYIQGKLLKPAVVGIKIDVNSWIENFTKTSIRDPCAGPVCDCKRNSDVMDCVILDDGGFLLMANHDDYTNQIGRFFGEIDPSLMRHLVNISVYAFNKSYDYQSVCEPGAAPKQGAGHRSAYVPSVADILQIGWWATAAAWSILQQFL
T1 sequence (P54289 947-1103 partner limits assumed): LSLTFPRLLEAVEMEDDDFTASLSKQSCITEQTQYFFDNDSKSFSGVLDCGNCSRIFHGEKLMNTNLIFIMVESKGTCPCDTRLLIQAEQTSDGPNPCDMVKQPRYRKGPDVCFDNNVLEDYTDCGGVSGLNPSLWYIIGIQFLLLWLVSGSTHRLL

Compound | IC50 [1] [µM] | IC50 [µM]
Cc1c(C(=O)N2CC(C)CC(C)C2)oc2ccc(S(=O)(=O)N3CCCCC3)cc12 (centres unmarked) [compound 124] | 5 to 20 | 
CC1CC(C)CN(S(=O)(=O)c2ccc3[nH]c(C(=O)N4CCCCCC4)cc3c2)C1 (centres unmarked) [compound 126] | < 5 | 
Cc1c(C(=O)N2CC(C)CC(C)C2)[nH]c2ccc(S(=O)(=O)N3CCC(C)CC3)cc12 (centres unmarked) [compound 127] | 5 to 20 | 
Cc1c(C(=O)N2CCC(C)CC2)oc2ccc(S(=O)(=O)N3CCC(C)CC3)cc12 [compound 128] | 5 to 20 | 
Cc1c(C(=O)NCCN2CCOCC2)oc2ccc(S(=O)(=O)N3CCC(C)CC3)cc12 [compound 129] | 5 to 20 | 
CCNC(=O)c1cc2cc(S(=O)(=O)N3CCC(C)CC3)ccc2[nH]1 [compound 130] | < 5 | 
CCNC(=O)c1cc2cc(S(=O)(=O)N3CCC(C)CC3)ccc2o1 [compound 131] | < 5 | 
Cc1c(C(=O)NC2CCCCC2C)oc2ccc(S(=O)(=O)N3CCCC3)cc12 (centres unmarked) [compound 132] | < 20 | 
Cc1c(C(=O)NC2CC2)oc2ccc(S(=O)(=O)Nc3nncs3)cc12 [compound 133] | < 20 | 
Cc1c(C(=O)NCCCN2CCCC2=O)oc2ccc(S(=O)(=O)N3CC(C)CC(C)C3)cc12 (centres unmarked) [compound 134] | 5 to 20 | 
CN1CCN(C(=O)c2cc3cc(S(=O)(=O)N4CCCCCC4)ccc3n2S(=O)(=O)c2ccccc2)CC1 [compound 135] | 5 to 20 | 
Cc1c(C(=O)NCCc2ccccc2)oc2ccc(S(=O)(=O)N3CCC4(CC3)OCCO4)cc12 [compound 136] | 5 to 20 | 
CC1CC(C)CN(S(=O)(=O)c2ccc3oc(C(=O)N(C(C)C)C(C)C)cc3c2)C1 (centres unmarked) [compound 137] | < 5 | 
CC1CCN(S(=O)(=O)c2ccc3oc(C(=O)N(C(C)C)C(C)C)cc3c2)CC1 [compound 138] | < 5 | 
CC1CCN(S(=O)(=O)c2ccc3cc(C(=O)NC4CC4)[nH]c3c2)CC1 [compound 139] | 5 to 20 | 
CC1CCN(S(=O)(=O)c2ccc3[nH]c(C(=O)N(C(C)C)C(C)C)cc3c2)CC1 [compound 140] | < 5 | 
CCCCN(C)C(=O)c1cc2cc(S(=O)(=O)N3CCC(C)CC3)ccc2[nH]1 [compound 141] | < 5 | 
CC1CCN(S(=O)(=O)c2ccc3[nH]c(C(=O)NC(C)C)cc3c2)CC1 [compound 142] | < 5 | 
CC1CC(C)CN(S(=O)(=O)c2ccc3[nH]c(C(=O)N4CCCC4)cc3c2)C1 (centres unmarked) [compound 143] | 5 to 20 | 
Cc1c(C(=O)N2CC(C)CC(C)C2)oc2ccc(S(=O)(=O)N3CCOCC3)cc12 (centres unmarked) [compound 144] | 5 to 20 | 
CNC(=O)c1oc2ccc(S(=O)(=O)N3CCCCCC3)cc2c1C [compound 145] | < 20 | 

Compound | IC50 [1] [µM] | IC50 [µM]
Cc1c(C(=O)NC2CCCC2)[nH]c2ccc(S(=O)(=O)N3CCC(C)CC3)cc12 [compound 146] | < 5 | 
CC1CCN(C(=O)c2cc3cc(S(=O)(=O)N4CCC(C)CC4)ccc3[nH]2)CC1 [compound 147] | < 5 | 
Cc1c(C(=O)NC2CCCC2)oc2ccc(S(=O)(=O)N3CCC(C)CC3)cc12 [compound 148] | < 5 | 
Cc1c(C(=O)NCC2CCCO2)oc2ccc(S(=O)(=O)N3CCOCC3)cc12 (centres unmarked) [compound 149] | < 20 | 
CCNC(=O)c1oc2ccc(S(=O)(=O)N3CCCCCC3)cc2c1C [compound 150] | 5 to 20 | 
Cc1ccc(S(=O)(=O)Nc2ccc3[nH]c(C(=O)NC4CC4)cc3c2)cc1 [compound 151] | 5 to 20 | 
Cc1c(C(=O)N2CCN(C)CC2)oc2ccc(S(=O)(=O)N3CCCCCC3)cc12 [compound 152] | 5 to 20 | 
Cc1c(C(=O)N2CCCCC2C)oc2ccc(S(=O)(=O)N3CC(C)CC(C)C3)cc12 (centres unmarked) [compound 153] | < 5 | 
Cc1c(C(=O)NCc2ccc(F)cc2)oc2ccc(S(=O)(=O)N3CCC(C)CC3)cc12 [compound 154] | 5 to 20 | 
CNC(=O)c1oc2ccc(S(=O)(=O)N3CCCCC3)cc2c1C [compound 155] | < 20 | 
CC1CC(C)CN(S(=O)(=O)c2ccc3oc(C(=O)N4CCC5(CC4)OCCO5)cc3c2)C1 (centres unmarked) [compound 156] |  | < 5
Cc1c(C(=O)NC(C)C)oc2ccc(S(=O)(=O)N3CCC(F)CC3)cc12 [compound 157] | 5 to 20 | 
CCOC(=O)N1CCN(C(=O)c2cc3cc(S(=O)(=O)N4CCC(C)CC4)ccc3o2)CC1 [compound 158] | < 20 | 
Cc1c(C(=O)N(C(C)C)C(C)C)oc2ccc(S(=O)(=O)N3CCCCCC3)cc12 [compound 159] | 5 to 20 | 
Cc1c(C(=O)N2CCN(C)CC2)[nH]c2ccc(S(=O)(=O)N3CC(C)CC(C)C3)cc12 (centres unmarked) [compound 160] | 5 to 20 | 
Cc1c(C(=O)N2CCC3(CC2)OCCO3)oc2ccc(S(=O)(=O)N3CCCCCC3)cc12 [compound 161] |  | 5 to 20
CCN(CC)C(=O)c1oc2ccc(S(=O)(=O)N3CCOCC3)cc2c1C [compound 162] | < 20 | 
Cc1c(C(=O)N2CCC(C)CC2)oc2ccc(S(=O)(=O)N3CCOCC3)cc12 [compound 163] | < 20 | 
CCN(CC)S(=O)(=O)c1ccc2oc(C(=O)N3CC(C)CC(C)C3)c(C)c2c1 (centres unmarked) [compound 164] | < 5 | 
CN1CCN(C(=O)c2cc3cc(S(=O)(=O)N4CCCCCC4)ccc3o2)CC1 [compound 165] | 5 to 20 | 
Cc1c(C(=O)NCC2CCOCC2)[nH]c2ccc(S(=O)(=O)N3CCC(C)CC3)cc12 [compound 166] | < 20 | 

Compound | IC50 [1] [µM] | IC50 [µM]
COc1ccccc1CNC(=O)c1oc2ccc(S(=O)(=O)N3CCOCC3)cc2c1C [compound 167] | < 20 | 
CCN(CC)C(=O)c1[nH]c2ccc(S(=O)(=O)N3CCC(C)CC3)cc2c1C [compound 168] | 5 to 20 | 
O=C(c1cc2cc(S(=O)(=O)N3CCCCCC3)ccc2o1)N1CCCCCC1 [compound 169] | < 5 | 
CC1CCCN(C(=O)c2cc3cc(S(=O)(=O)N4CCCCCC4)ccc3o2)C1 (centres unmarked) [compound 170] | < 5 | 
CC1CCCN(C(=O)c2cc3cc(S(=O)(=O)N4CC(C)CC(C)C4)ccc3[nH]2)C1 (centres unmarked) [compound 171] | < 5 | 
Cc1c(C(=O)N2CCC3(CC2)OCCO3)oc2ccc(S(=O)(=O)N3CCCCC3)cc12 [compound 173] |  | 5 to 20
Cc1c(C(=O)NC2CCCC2)n(C)c2ccc(S(=O)(=O)N3CCC(C)CC3)cc12 [compound 174] | < 5 | 
CCOC(=O)C1CCN(C(=O)c2oc3ccc(S(=O)(=O)N4CCC(C)CC4)cc3c2C)CC1 [compound 176] | < 5 | 
Cc1c(C(=O)NC2CCCC2)oc2ccc(S(=O)(=O)N3CCCC(C)C3)cc12 (centres unmarked) [compound 177] | < 5 | 
Cc1c(C(=O)N2CCCC2)oc2ccc(S(=O)(=O)N3CCCC(C)C3)cc12 (centres unmarked) [compound 178] | 5 to 20 | 
CCN(CC)S(=O)(=O)c1ccc2oc(C(=O)NCC3CCCO3)c(C)c2c1 (centres unmarked) [compound 179] | < 20 | 
Cc1c(C(=O)NCCCN2CCCC2)oc2ccc(S(=O)(=O)N3CC(C)CC(C)C3)cc12 (centres unmarked) [compound 180] | < 5 | 
CCCN(c1ccc2[nH]c(C(=O)NC3CC3)cc2c1)S(=O)(=O)c1ccccc1 [compound 181] | 5 to 20 | 
Cc1c(C(=O)NC2CC2)oc2ccc(S(=O)(=O)NCc3ccc(F)cc3)cc12 [compound 182] | < 20 | 
O=C(c1cc2cc(S(=O)(=O)N3CCCCCC3)ccc2o1)N1CCC2(CC1)OCCO2 [compound 183] |  | 5 to 20
CC1CC(C)CN(S(=O)(=O)c2ccc3oc(C(=O)N4CCCC4)cc3c2)C1 (centres unmarked) [compound 184] | < 5 | 
CC1CC(C)CN(S(=O)(=O)c2ccc3[nH]c(C(=O)N(C)Cc4ccccc4)cc3c2)C1 (centres unmarked) [compound 185] | < 5 | 
CCN(CC)C(=O)c1oc2ccc(S(=O)(=O)N(CC)CC)cc2c1C [compound 186] | < 20 | 
Cc1c(C(=O)NC2CCCC(C)C2C)oc2ccc(S(=O)(=O)N3CCOCC3)cc12 (centres unmarked) [compound 187] | 5 to 20 | 
CC1CCN(S(=O)(=O)c2ccc3oc(C(=O)N4CCN(C)CC4)cc3c2)CC1 [compound 188] | 5 to 20 | 
